Tests used:
[1] = tested on: photoreceptors of cultivated retinas from rats mutated in the rhodopsin (P23H); test: TUNEL assay on retinal organ cultures from P23H rhodopsin transgenic rats; type: cell-based, rat; conditions: for amount of dying photoreceptors (percentage of TUNEL positive cells in the outer nuclear layer (ONL) vs total nuclei in the ONL): P23H mutant retinal cultures, PN9 + 6 days in vitro, compared with untreated and DMSO treated controls, FIG. 3A; for survival of photoreceptors in radial sections: P23H retinal organ cultures, compared with DMSO control, FIG. 2
Description: Homozygous P23H rhodopsin transgenic rats (produced by Chrysalis DNX Transgenic Sciences, Princeton, N.J., United States of America) of the line Tg (P23H) 1 Lay (P23H-1) were kindly provided by Dr. M. M. LaVail (University of California, San Francisco, Calif., United States of America) and bred in the Animal Housing Facility in the Center for Ophthalmology in Tübingen. Heterozygous P23H rats were employed, obtained by crossing with wt, CD rats (CDH IGS rat; Charles River, Germany) to reflect the genetic background of autosomal-dominant retinitis pigmentosa (ADRP).
Retinas of postnatal day 9 (PN9) of P23H transgenic rats were cultivated for six days (DIVE) that correspond to PN15, i.e. the peak of degeneration in in vivo aged-matched mutants. The day of birth was denoted as P0. For radial sections, cultures were immersed in 4% paraformaldehyde in 0.1 M phosphate buffer (PB; pH 7.4) for 30 minutes at 4° C. and embedded in cryomatrix (Tissue-Tek, Leica, Bensheim, Germany). The radial sections (15 μm thick) were processed immediately or stored at […]
The retinas were isolated from nine-days-old P23H rats with the retinal pigment epithelium (RPE) attached essentially as described previously in Caffe et al. (2001), “Mouse retina explants after long-term culture in serum free medium”, J. Chem. Neuroanat. 22(4): 263-73, and Arango-Gonzalez et al. (2010), “In vivo and in vitro devel-opment of S- and M-cones in rat retina”, Invest. Ophthalmol. Vis. Sci. 2010 October; 51(10):5320-7. Briefly, the eyes of decapitated rats were enucleated in aseptic environment and pretreated with 12% proteinase K (ICN Biomedicals Inc., OH, United States of America) for 15 minutes at 37° C. in R16 serum-free culture medium (Invitrogen Life Technologies, Paisley, United Kingdom). The enzymatic digestion was stopped by the addition of 20% fetal bovine serum. Retina and RPE were dissected and four radial sections were made to flatten the tissue. The tissue was transferred to a 0.5 μm polycar-bonate membrane (Corning Life Sciences, Lowell, Mass., United States of America), with the RPE facing the membrane. The inserts were placed into six well culture plates and incubated with R16 nutrient medium at 36.5° C. The retina was left in R16 culture medium without a treatment for one day to allow an adaptation to the culture conditions. The medium was changed at DIV1, DIV3, and DIV5, and the new medium either contained ML240 (1 μM or […]) or EerII (1 μM or 20 μM). Both components were pre-diluted in dimethyl sulfoxide (DMSO, Sigma). For controls, the same amount of DMSO (0.05% or 1% respectively) was diluted in culture medium. The cultures were fixed at DIVE and analyzed as radial sections. […]

[2] = tested on: photoreceptors of cultivated retinas from wild-type rats; test: TUNEL assay on retinal organ cultures from wild-type rats; type: cell-based, rat; conditions: for reduction of percentage of TUNEL positive cells in the ONL: WT cultivated retinas, compared with controls, FIG. 3B, **p<0.01, ***p<0.001; for survival of photoreceptors in radial sections: wild-type retinal organ cultures, compared with DMSO control, FIG. 2

Structure (SMILES) | amount of dying photoreceptors (percentage of TUNEL positive cells in the outer nuclear layer (ONL) vs total nuclei in the ONL) [1] | survival of photoreceptors in radial sections [1] | reduction of percentage of TUNEL positive cells in the ONL [2] | survival of photoreceptors in radial sections [2]
CC1(C)C(N(O)C(=O)Nc2ccc(Cl)cc2)N(c2ccc(Cl)cc2)C(=O)N1CC(=O)N/N=C/C=C/c1ccc([N+](=O)[O-])o1 (centres unmarked) [EerI, Eeyarestatin I] | significantly reduce | significant increase of the survival | not significantly | significant increase of the survival
COc1cccc2c(NCc3ccccc3)nc(-n3c(N)nc4ccccc43)nc12 [ML240] | significantly reduce | significant increase of the survival | significantly | significant increase of the survival

Source: patent US11229651B2, “Prophylaxis and treatment of a neurodegenerative disease not based on a protein-folding disorder” (Eberhard Karls Universität Tübingen Medizinische Fakultät, priority 2013, dated 2022)
